Results taken from patent US20070092474A1, “Carnitine salt, preliposome which contains it and dermocosmetic formula for topical use based upon said carnitine salt” (priority 2003, published 2007).
Several values for one entry are separate records, joined by “and”; a condition that tells them apart may be missing. Equal values may be shown once.

Tests used:
[1] = test system: skin blemishes caused by cellulite and localised adiposity; assay: Plicometry: skin plica thickness measured with a plicometer, dermatological test of the cosmetic gel; assay type: in vivo, female volunteers; design: RIGHT PLICOMETRY 1/3 T0 / RIGHT PLICOMETRY 3/3 T15 / RIGHT PLICOMETRY 3/3 T30 / RIGHT PLICOMETRY 3/3 T60 / RIGHT PLICOMETRY 1/3 T15 / RIGHT PLICOMETRY 1/3 T30 / RIGHT PLICOMETRY 1/3 T60 / RIGHT PLICOMETRY 2/3 T0 / RIGHT PLICOMETRY 2/3 T15 / RIGHT PLICOMETRY 2/3 T30 / RIGHT PLICOMETRY 2/3 T60 / RIGHT PLICOMETRY 3/3 T0 / LEFT PLICOMETRY 1/3 T0 / LEFT PLICOMETRY 3/3 T15 / LEFT PLICOMETRY 3/3 T30 / LEFT PLICOMETRY 3/3 T60 / LEFT PLICOMETRY 1/3 T30 / LEFT PLICOMETRY 1/3 T60 / LEFT PLICOMETRY 2/3 T0 / LEFT PLICOMETRY 2/3 T15 / LEFT PLICOMETRY 2/3 T30 / LEFT PLICOMETRY 2/3 T60 / LEFT PLICOMETRY 3/3 T0: unit not given beside the values; conditions: individual volunteer
Procedure: (§1) A dermatological test was carried out on 25 female volunteers between 18 and 65 years of age, with the backing of the Department of Physiological and Pharmacological Sciences of the university of Pavia. The investigation aimed to check the modification of three anatomical-physiological parameters, qualifying the unaesthetic-functional aspect connected to the manifestation of so-called cellulite and subcutaneous hypertriglyceridaemia: measurement of the skin folds, measurement of the circumference of the thighs, thermographic skin measurement.
(§2) The test stretched out over 60 days with the continual daily application of the aforementioned preparation of cosmetic gel. The measurements were carried out after 15, 30 and 60 days. The detail of the test protocol and of the results obtained is shown hereafter.
25 female volunteers aged between 18 and 65, with the presence of skin blemishes caused by cellulite and localised adiposity, were selected according to the following criteria: good general state of health, absence of skin pathologies, not being under medication, commitment not to vary the normal daily routine, no medical history of atopy.
The samples were tested by uniformly applying them on “Glute SX Glute DJ (Femoris Posto SX Femoris Posto DX Femoris Ant. SX Femoris Ant. DX” every day at least once per day for the entire duration of the test.
At the time of inclusion in the study and during the subsequent checks after 15 days (T15), after 30 days (T30) and after 60 days (T60) of treatment the following instrumental measurements were taken: • plicometry (through a plicometer) • thigh circumference (through a measuring tape broken into millimetres) • contact thermography (through liquid crystal thermographic plates).
In particular, the plicometer used in the test constitutes the suitable instrument for measuring the skin plica thickness. Skin plicometry provides numerical data of particular use when the panniculopathic process of the cellulite is associated with localised adiposity.

[2] = test system: skin blemishes deriving from cellulite and from localised adiposity; assay: Overall evaluation of the efficiency of the cosmetic product adjuvating the reduction of skin blemishes; assay type: in vivo, female volunteers; conditions: versus just carnitine (II) and just hydroxy citric acid (III) in the same tests
Procedure: as §1, §2
Evaluation of the Efficiency of a Cosmetic Product Adjuvating the Reduction of the Skin Blemishes Deriving from Cellulite and from Localised Adiposity.
The present experimentation allows it to be evaluated whether the cosmetic product being studied carries out an action adjuvating the reduction of the skin blemishes deriving from cellulite and from localised adiposity. […]

[3] = T0 at inclusion, before treatment
[4] = after 15 days of daily gel application
[5] = after 30 days of daily gel application
[6] = after 60 days of daily gel application

Substance: carnitine hydroxycitrate [carnitine hydroxy citrate]
- LEFT PLICOMETRY 1/3 T0 [1, 3]: 23.3 and 17.8 and 35.9 and 24.9 (2×) and 21.1 and 25.9 and 19.8 and 26.7 and 26.0 and 31.1 and 26.6 and 19.7 and 22.9 (2×) and 24.6 and 32.8 and 28.1 and 24.0 and 30.8 and 27.9 and 22.8 and 34.6 and 16.8 and 30.5
- LEFT PLICOMETRY 2/3 T0 [1, 3]: 28.7 and 22.6 and 38.8 and 24.8 and 27.1 and 28.9 and 28.1 and 40.9 and 33.9 and 30.8 and 27.6 and 24.3 and 27.8 and 20.6 and 31.8 and 29.9 and 22.9 and 27.2 and 25.4 and 35.4 and 39.7 and 25.3 and 41.6 and 23.5 and 32.5
- LEFT PLICOMETRY 3/3 T0 [1, 3]: 34.9 and 21.8 and 37.9 and 27.8 and 30.8 and 33.3 and 26.8 and 41.6 and 28.1 and 35.9 (2×) and 35.3 and 20.6 and 33.5 (2×) and 20.1 and 20.3 and 37.2 and 17.8 and 34.1 and 41.5 and 22.9 and 40.9 and 28.9 and 38.1
- RIGHT PLICOMETRY 1/3 T0 [1, 3]: 30.5 and 23.3 and 17.8 and 35.9 and 24.9 (2×) and 21.1 and 25.9 and 19.8 and 26.7 and 26.0 and 31.1 and 26.6 and 19.7 and 22.9 (2×) and 24.6 and 32.8 and 28.1 and 24.0 and 30.8 and 27.9 and 22.8 and 34.6 and 16.8
- RIGHT PLICOMETRY 2/3 T0 [1, 3]: 37.2 and 30.8 and 26.7 and 32.8 and 20.9 and 29.2 and 36.8 and 26.3 and 34.9 and 35.5 and 33.5 and 29.7 and 24.8 and 29.9 and 22.4 and 31.2 and 33.7 and 27.7 and 26.8 and 25.3 and 37.8 and 41.5 and 28.8 and 39.8 and 27.0
- RIGHT PLICOMETRY 3/3 T0 [1, 3]: 40.1 and 41.6 and 25.9 and 32.7 and 29.9 (2×) and 33.8 and 37.1 and 39.8 and 40.6 and 37.7 and 36.8 (2×) and 28.8 and 29.4 and 25.6 and 32.3 and 39.9 and 22.3 and 19.8 and 35.1 and 42.6 and 22.9 and 36.2 and 26.8
- LEFT PLICOMETRY 1/3 T15 [1, 4]: 22.6 (3×) and 17.1 and 35.2 and 24.2 (2×) and 20.4 and 25.2 and 19.1 and 26.0 and 25.3 and 30.4 and 27.2 and 19.6 and 23.9 and 32.9 and 27.4 and 24.6 and 30.6 and 27.8 and 22.8 and 33.9 and 16.1 and 29.8
- LEFT PLICOMETRY 2/3 T15 [1, 4]: 28.0 and 21.9 and 38.1 and 24.1 and 26.4 and 28.2 and 27.4 and 40.2 and 33.2 and 30.1 and 26.9 and 23.6 and 27.1 and 19.9 and 31.1 and 29.2 and 22.2 and 26.5 and 24.7 and 34.7 and 39.0 and 24.6 and 40.9 and 22.8 and 31.8
- LEFT PLICOMETRY 3/3 T15 [1, 4]: 34.3 and 21.2 and 37.3 and 27.2 and 30.2 and 32.7 and 26.2 and 41.0 and 27.5 and 35.3 (2×) and 34.7 and 20.0 and 32.9 (2×) and 19.5 and 19.7 and 36.6 and 17.2 and 33.5 and 40.9 and 22.3 and 40.3 and 28.3 and 37.5
- RIGHT PLICOMETRY 1/3 T15 [1, 4]: 29.0 and 22.0 and 16.5 and 34.5 and 23.5 (2×) and 19.6 and 24.5 and 18.4 and 25.3 and 24.2 and 30.0 and 27.1 and 19.5 and 23.0 and 23.2 and 31.0 and 20.3 and 26.7 and 22.6 and 29.4 and 26.5 and 21.4 and 33.2 and 15.4
- RIGHT PLICOMETRY 2/3 T15 [1, 4]: 35.7 and 28.5 and 25.2 and 30.8 and 19.4 and 27.7 and 35.3 and 24.8 (2×) and 33.4 and 34.0 and 32.0 and 27.3 (2×) and 23.0 and 29.6 and 20.9 and 31.5 and 32.2 and 27.8 and 25.3 and 38.1 and 40.0 and 37.3 and 27.0
- RIGHT PLICOMETRY 3/3 T15 [1, 4]: 40.0 (2×) and 24.9 and 31.7 and 28.9 (2×) and 32.8 and 37.5 and 39.6 and 39.8 and 37.8 and 35.9 and 28.2 and 28.4 and 26.1 and 32.0 and 38.9 and 21.3 and 37.0 and 18.8 and 34.1 and 41.6 and 21.9 and 34.9 and 25.8
- LEFT PLICOMETRY 1/3 T30 [1, 5]: 21.0 and 15.5 and 33.6 and 22.6 and 18.8 and 23.6 and 17.5 and 24.4 and 23.7 and 28.8 and 24.3 and 17.4 and 20.6 and 22.3 and 30.5 and 23.5 and 20.2 and 25.8 and 23.8 and 28.5 and 25.6 and 21.6 and 32.3 and 14.5 and 28.2
- LEFT PLICOMETRY 2/3 T30 [1, 5]: 26.4 and 20.3 and 36.5 and 22.5 and 24.8 and 26.6 and 25.8 and 38.6 and 31.6 and 28.5 and 25.3 and 22.0 and 25.5 and 18.3 and 29.5 and 27.6 and 20.6 and 24.9 and 23.0 (2×) and 33.5 and 37.4 and 39.3 and 21.2 and 30.2
- LEFT PLICOMETRY 3/3 T30 [1, 5]: 32.8 and 19.7 and 35.8 and 25.7 and 28.7 and 31.2 and 24.7 and 39.5 and 26.0 and 33.8 (2×) and 33.2 and 18.5 (2×) and 31.4 (2×) and 18.2 and 35.1 and 15.7 and 32.0 and 39.4 and 20.8 and 38.8 and 26.8 and 36.0
- RIGHT PLICOMETRY 1/3 T30 [1, 5]: 28.2 and 18.9 and 15.5 and 33.2 and 22.4 and 18.8 and 23.6 and 17.5 and 24.4 and 24.2 and 28.8 and 26.5 and 17.4 and 22.7 and 21.8 and 31.2 and 22.6 and 20.5 (2×) and 25.8 and 21.7 and 27.6 and 24.3 and 32.5 and 14.5
- RIGHT PLICOMETRY 2/3 T30 [1, 5]: 34.6 and 28.2 and 24.0 and 30.2 and 18.2 and 25.4 (2×) and 34.0 and 23.7 and 33.5 and 32.9 and 30.0 and 27.6 and 21.7 and 26.5 and 20.0 and 30.8 and 31.0 and 23.9 and 22.3 and 38.1 and 40.0 and 26.2 and 35.6 and 24.3
- RIGHT PLICOMETRY 3/3 T30 [1, 5]: 40.2 and 39.9 and 23.6 and 30.4 and 27.6 (2×) and 31.5 and 36.9 and 38.4 and 38.5 and 36.2 and 33.6 and 26.3 and 26.5 and 23.7 and 31.2 and 37.6 and 19.6 and 36.4 and 17.5 and 30.5 and 39.8 and 20.4 and 34.0 and 25.6
- LEFT PLICOMETRY 1/3 T60 [1, 6]: 20.5 and 15.0 and 30.9 and 22.1 (2×) and 18.3 and 23.1 and 17.0 and 23.9 (2×) and 23.2 and 27.6 and 23.6 and 16.5 and 18.4 and 21.2 and 30.5 and 19.8 and 25.3 and 20.7 and 26.2 and 21.5 and 30.4 and 14.0 and 27.7
- LEFT PLICOMETRY 2/3 T60 [1, 6]: 25.7 and 19.6 and 35.8 and 21.8 and 24.1 and 25.9 and 25.1 and 37.9 and 30.9 and 27.8 and 24.6 and 21.3 and 24.8 and 17.6 and 28.8 and 26.9 and 19.9 and 24.2 and 22.4 and 32.4 and 36.7 and 22.3 and 38.6 and 20.5 and 29.5
- LEFT PLICOMETRY 3/3 T60 [1, 6]: 31.9 and 18.8 and 34.9 and 24.8 and 27.8 and 30.3 and 23.8 and 38.6 and 25.1 and 33.2 and 32.3 and 17.6 and 29.6 and 17.2 and 30.5 and 32.9 and 18.5 and 34.2 and 14.8 and 31.0 and 38.5 and 19.9 and 37.9 and 25.9 and 35.1
- RIGHT PLICOMETRY 1/3 T60 [1, 6]: 27.5 and 20.5 and 15.0 and 32.1 and 22.0 and 17.8 and 23.0 and 16.7 (2×) and 23.7 and 24.6 and 27.6 and 26.6 and 21.5 and 21.7 and 28.9 and 21.4 and 18.4 and 24.1 and 21.3 and 28.0 and 23.9 and 19.9 and 31.7 and 13.8
- RIGHT PLICOMETRY 2/3 T60 [1, 6]: 34.0 and 26.3 and 23.2 and 29.4 and 17.3 and 26.0 and 32.8 and 23.5 and 33.6 and 32.1 and 30.0 and 26.5 and 20.9 and 26.7 and 20.0 and 27.8 and 29.7 and 25.6 (2×) and 23.9 and 21.8 and 37.7 and 40.0 and 35.3 and 23.8
- RIGHT PLICOMETRY 3/3 T60 [1, 6]: 38.9 and 37.4 (2×) and 22.3 (2×) and 29.4 and 27.0 and 32.1 and 35.2 and 36.8 and 26.9 and 35.6 and 33.2 (2×) and 25.3 and 26.6 and 29.5 and 35.4 and 18.2 and 34.1 and 17.0 and 30.9 and 39.8 and 19.7 and 23.7
- Comparison of the salt with the two reactants by themselves [2]: provides the best results
